Patent US20220153766A1, “CONDENSED TRICYCLIC COMPOUND USED AS KINASE INHIBITOR” (Hangzhou Innogate Pharma Co., Ltd., priority 2019, published 2022)

Assays:
MAP4K1 (HPK1) = MAP4K1 (HPK1) (Homo sapiens, UniProt Q92918); assay: MAP4K1 (HPK1) kinase activity inhibition, Caliper mobility shift assay; type: biochemical; details: kinase 1.25 nM, ATP 10.1 μM
Method: 4. MAP4K1 (HPK1) Kinase Activity Inhibition Experiment: Caliper mobility shift assay was used to detect the inhibitory effect of the compound on MAP4K1 (HPK1) kinase activity. The test concentration of the compound starts at 500 nM, and is diluted 5 folds into 5 concentration points. Use a dispenser Echo 550 to transfer 250 nL 100-fold final concentration of the compound to the target plate 3573, add 10 μL of MAP4K1 (HPK1) kinase solution with a final concentration of 1.25 nM, and incubate for 10 minutes at room temperature (the negative control well contains 10 μL kinase buffer and 250 nL 100% DMSO; the positive control well contains 10 μL kinase solution and 250 nL 100% DMSO). On the kinase MAP4K1 (HPK1), add 15 μL of ATP with a final concentration of 10.1 μM and 3 μM substrate peptide No. 25 mixed solution to react for 120 minutes. Add 30 μL of stop solution containing EDTA to stop the kinase reaction. Use Caliper EZ Reader to read the conversion rate. Inhibition rate %=(Average positive control conversion rate %−Sample conversion rate %/(Average positive control conversion rate %−Average negative control conversion rate %). Among them: negative control wells represent the conversion rate readings without enzyme activity; positive control wells represent the conversion rate readings of wells without compound inhibition. Take the log value of the concentration as the X-axis, and the percentage inhibition rate on the Y-axis. Log (inhibitor) vs. response—Variable slope of analysis software GraphPad Prism 5 was used to fit the curve to obtain the IC50 value of each compound on the enzyme activity. Calculation formula: Y=Bottom+(Top−Bottom)/(1+10 ^((Log IC50−X)*HillSlope)).

[1] = biological target: T1, Ba/F3_EGFR del19/T790M/C797S cells (Homo sapiens, UniProt P00533, T790M/C797S, cells depend on it, form not given); assay: Ba/F3_EGFR (del19-T790M-C797S) cell proliferation inhibition, CTG, method 1; type: cell-based
T1 sequence (P00533 with tags, fused parts or gaps DEL746-750/T790M/C797S, form open): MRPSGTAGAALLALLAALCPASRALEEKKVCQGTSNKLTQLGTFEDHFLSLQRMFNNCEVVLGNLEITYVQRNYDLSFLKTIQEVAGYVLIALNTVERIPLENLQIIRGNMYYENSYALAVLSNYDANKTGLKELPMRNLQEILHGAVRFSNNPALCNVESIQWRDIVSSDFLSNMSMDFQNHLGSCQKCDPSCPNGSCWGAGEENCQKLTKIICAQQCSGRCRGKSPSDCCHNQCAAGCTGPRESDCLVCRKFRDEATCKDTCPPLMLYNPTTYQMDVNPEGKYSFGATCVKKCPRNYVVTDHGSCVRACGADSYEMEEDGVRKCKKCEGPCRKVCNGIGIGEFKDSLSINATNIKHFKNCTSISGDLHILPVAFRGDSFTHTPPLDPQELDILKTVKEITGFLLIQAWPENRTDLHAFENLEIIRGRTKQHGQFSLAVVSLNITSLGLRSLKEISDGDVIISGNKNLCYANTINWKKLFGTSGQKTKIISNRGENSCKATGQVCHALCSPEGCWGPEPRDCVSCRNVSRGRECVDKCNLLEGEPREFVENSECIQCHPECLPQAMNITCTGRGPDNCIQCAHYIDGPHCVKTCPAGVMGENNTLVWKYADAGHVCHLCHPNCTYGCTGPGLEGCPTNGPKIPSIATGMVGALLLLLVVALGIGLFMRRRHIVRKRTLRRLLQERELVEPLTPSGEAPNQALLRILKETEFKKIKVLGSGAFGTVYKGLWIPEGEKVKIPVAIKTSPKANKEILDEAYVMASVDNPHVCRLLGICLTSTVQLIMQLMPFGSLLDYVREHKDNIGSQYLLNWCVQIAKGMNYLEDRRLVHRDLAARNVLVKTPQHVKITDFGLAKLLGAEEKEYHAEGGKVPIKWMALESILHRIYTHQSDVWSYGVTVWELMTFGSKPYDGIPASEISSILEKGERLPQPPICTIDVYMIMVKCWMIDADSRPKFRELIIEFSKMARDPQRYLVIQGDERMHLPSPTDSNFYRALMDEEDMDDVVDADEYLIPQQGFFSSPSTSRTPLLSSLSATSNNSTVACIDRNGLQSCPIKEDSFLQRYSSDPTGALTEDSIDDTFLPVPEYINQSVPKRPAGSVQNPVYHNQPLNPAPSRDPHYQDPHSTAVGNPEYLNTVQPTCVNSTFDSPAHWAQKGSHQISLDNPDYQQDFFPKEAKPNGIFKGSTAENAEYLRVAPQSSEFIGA
Method: The cells were cultured in a 37° C., 5% CO2 incubator.
Cell plating and compound treatment: 1) Cells are routinely cultured until the cell saturation is 80%-90%, and when the number reaches the requirement, the cells are collected. 2) Resuspend in the corresponding fresh medium, take a small amount of cells to count, and prepare a cell suspension with a suitable density. 3) Inoculate the cell suspension into a 384-well plate at 700 cells/well, 30 μL per well. 4) Use Echo to add the compound to the corresponding cell well. The maximum starting concentration of the compound is 1-10 μM, 3 folds dilution, 8 concentrations.
CTG method detection: 1) Add 30 μL of CTG reagent (CelltiterGlo kit) to each well, and let it stand for 30 minutes at 37° C. and 5% CO2 in the dark. 2) Use Envision instrument to read the chemiluminescence signal value.
Data analysis: IC50 results are analyzed by GraphPad Prism 6 software. […] X: log value of compound concentration; Y: inhibition rate (% inhibition); inhibition rate (% inhibition)=(blank control well reading−compound well reading)/(blank control well reading−positive control reading)×100.

[2] = biological target: T1, Ba/F3_EGFR del19/T790M/C797S cells; assay: Ba/F3_EGFR (del19-T790M-C797S) cell proliferation inhibition, CTG, method 2; type: cell-based; details: 2000 cells/well, 72 h, read-out: Ba/F3_EGFR (del19-T790M-C797S) cell proliferation inhibition (IC50 value) Method 2
Method: Take a small amount of cells and count them with ViCell. 2) Adjust the cell density, inoculate the cells in a 384-well plate at 2000/well, and incubate in a 37° C., 5% CO2 incubator for 4 hours. 3) Set up the program of Tecan HP D300, add the compound to the well plate. The maximum initial concentration of the compound is 1-4 μM, 3 folds dilution, 9 concentrations, and the DMSO content in each well is unified to 0.2%.
CTG method detection: 1) Take out the CTG reagent and cell plate and equilibrate at room temperature for 30 min, add 25 μL CTG to each well, shake at medium speed for 2 min, centrifuge at 1000 rpm for 1 minutes, and stand still at room temperature for 10 minutes. 2) Envision instrument reads the chemiluminescence signal value.
Data analysis: IC50 results are analyzed by IDBS's XL-fit 5.0 software.

ALK = ALK (Homo sapiens, UniProt Q9UM73); assay: ALK kinase activity inhibition, Caliper mobility shift assay, method 1; type: biochemical
Sequence of ALK (Q9UM73 19-1620): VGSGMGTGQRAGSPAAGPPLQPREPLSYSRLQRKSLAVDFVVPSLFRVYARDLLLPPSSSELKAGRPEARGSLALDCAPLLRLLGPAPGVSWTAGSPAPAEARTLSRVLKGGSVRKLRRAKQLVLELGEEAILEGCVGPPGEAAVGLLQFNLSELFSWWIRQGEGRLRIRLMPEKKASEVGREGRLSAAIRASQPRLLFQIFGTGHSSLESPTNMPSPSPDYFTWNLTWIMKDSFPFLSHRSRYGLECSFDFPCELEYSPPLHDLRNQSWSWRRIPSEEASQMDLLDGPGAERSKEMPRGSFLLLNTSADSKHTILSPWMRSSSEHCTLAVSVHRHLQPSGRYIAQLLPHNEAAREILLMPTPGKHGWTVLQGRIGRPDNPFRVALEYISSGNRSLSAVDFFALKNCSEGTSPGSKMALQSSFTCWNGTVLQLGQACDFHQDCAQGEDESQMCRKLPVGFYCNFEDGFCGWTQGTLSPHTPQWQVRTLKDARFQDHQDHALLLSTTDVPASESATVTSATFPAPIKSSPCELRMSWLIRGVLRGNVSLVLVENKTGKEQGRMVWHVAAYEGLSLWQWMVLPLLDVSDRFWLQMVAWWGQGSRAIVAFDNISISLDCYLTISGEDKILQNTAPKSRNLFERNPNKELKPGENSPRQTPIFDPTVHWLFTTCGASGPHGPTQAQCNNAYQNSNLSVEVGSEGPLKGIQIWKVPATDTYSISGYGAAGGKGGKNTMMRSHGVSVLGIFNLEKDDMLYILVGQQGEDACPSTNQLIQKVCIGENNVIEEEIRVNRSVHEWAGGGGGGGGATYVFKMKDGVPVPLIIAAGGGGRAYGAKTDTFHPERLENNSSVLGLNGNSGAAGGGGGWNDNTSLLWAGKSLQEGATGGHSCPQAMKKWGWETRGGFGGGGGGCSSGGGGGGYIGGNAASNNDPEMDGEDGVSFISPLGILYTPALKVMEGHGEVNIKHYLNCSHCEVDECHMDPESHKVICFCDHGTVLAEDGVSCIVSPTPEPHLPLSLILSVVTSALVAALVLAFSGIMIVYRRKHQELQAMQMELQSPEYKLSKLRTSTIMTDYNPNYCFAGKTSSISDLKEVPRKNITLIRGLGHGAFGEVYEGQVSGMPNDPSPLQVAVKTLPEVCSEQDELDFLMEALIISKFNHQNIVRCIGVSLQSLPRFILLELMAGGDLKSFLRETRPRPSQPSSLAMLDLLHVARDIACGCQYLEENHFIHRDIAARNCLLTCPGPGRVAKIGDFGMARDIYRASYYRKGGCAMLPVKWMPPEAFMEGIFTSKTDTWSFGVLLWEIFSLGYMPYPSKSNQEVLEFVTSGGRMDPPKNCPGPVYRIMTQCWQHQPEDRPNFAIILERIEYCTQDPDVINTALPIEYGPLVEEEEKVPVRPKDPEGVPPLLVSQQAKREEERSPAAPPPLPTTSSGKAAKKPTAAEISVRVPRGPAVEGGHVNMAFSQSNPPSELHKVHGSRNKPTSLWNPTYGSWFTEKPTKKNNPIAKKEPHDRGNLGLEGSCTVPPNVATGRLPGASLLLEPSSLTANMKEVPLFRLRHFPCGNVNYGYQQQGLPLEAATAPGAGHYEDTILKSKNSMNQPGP
Method: 2. ALK Kinase Activity Inhibition Experiment: Method 1: In vitro enzymatic activity of ALK was measured using Caliper mobility shift assay. […] Add 10 μL of 2.5-fold enzyme solution and incubate at room temperature for 10 minutes, then add 10 μL of 2.5-fold substrates (Peptide FAM-P22 and ATP) solution. […] Read conversion rate data on Caliper EZ Reader II (Caliper Life Sciences). Convert the conversion rate into inhibition rate (% inhibition=(max−conversion rate)/(max−min)*100). Max refers to the conversion rate of the DMSO control, and min refers to the conversion rate without enzyme activity. With the compound concentration and inhibition rate on the abscissa and ordinate, draw the curve, use XLFit excel add-in version 5.4.0.8 software to fit the curve and calculate the IC50.

EGFR (C797S) = EGFR (C797S) (Homo sapiens, UniProt P00533, C797S); assay: EGFR (C797S) kinase activity inhibition, Lantha screen Assay; type: biochemical; details: kinase 10 nM, ATP 0.1 μM
Method: 1. EGFR (C797S) Kinase Activity Inhibition Experiment: The Lantha screen Assay method was used to test the inhibitory activity of the compounds at a kinase EGFR (C797S) concentration of 10 nM and an ATP concentration of 0.1 μM. The control samples were Staurosporine. Experimental Steps: […] 2) Control sample Staurosporine and test samples preparation: Staurosporine and the compounds of the embodiment of the present invention are formulated into a gradient concentration solution in 100% DMSO, and diluted to 10% DMSO with the above-mentioned buffer, and added to a 384-well plate. For example, if the initial concentration of the compound is 10 μM, 100% DMSO is used to prepare a 1000 μM solution, and 10 concentration gradients are diluted, and 100 nL solution is transferred to a 384-well plate with Echo*LIQUID HANDLE RS (LABCYTE, USA). […] Transfer 5 μL to the 384-well plate and incubate with the compound for 10-15 minutes. […] Transfer 5 μL to the 384-well plate to initiate the reaction, and incubate at room temperature for 30 minutes. [table] 5) Use TR-Fret dilution buffer to prepare 2-fold detection solution. The final concentration of Antibody is 2 nM and the final concentration of EDTA is 10 mM. Transfer 10 μL of detection solution to the reaction wells of the 384-well plate, shake and mix, and incubate at room temperature for 60 min. 6) Read the ratio of excitation at 340 nm and emission at 520 nm to 495 nm on Envision, and calculate the inhibition rate. 7) Fit IC50 with XL-fit software.

EGFR (T790M/L858R/C797S) = EGFR (T790M/L858R/C797S) (Homo sapiens, UniProt P00533, C797S/L858R/T790M); assay: EGFR (T790M/L858R/C797S) kinase activity inhibition, Caliper mobility shift assay; type: biochemical; details: kinase 2.5 nM, ATP 40 μM
Sequence of EGFR (T790M/L858R/C797S) (P00533 25-1210 T790M/C797S/L858R): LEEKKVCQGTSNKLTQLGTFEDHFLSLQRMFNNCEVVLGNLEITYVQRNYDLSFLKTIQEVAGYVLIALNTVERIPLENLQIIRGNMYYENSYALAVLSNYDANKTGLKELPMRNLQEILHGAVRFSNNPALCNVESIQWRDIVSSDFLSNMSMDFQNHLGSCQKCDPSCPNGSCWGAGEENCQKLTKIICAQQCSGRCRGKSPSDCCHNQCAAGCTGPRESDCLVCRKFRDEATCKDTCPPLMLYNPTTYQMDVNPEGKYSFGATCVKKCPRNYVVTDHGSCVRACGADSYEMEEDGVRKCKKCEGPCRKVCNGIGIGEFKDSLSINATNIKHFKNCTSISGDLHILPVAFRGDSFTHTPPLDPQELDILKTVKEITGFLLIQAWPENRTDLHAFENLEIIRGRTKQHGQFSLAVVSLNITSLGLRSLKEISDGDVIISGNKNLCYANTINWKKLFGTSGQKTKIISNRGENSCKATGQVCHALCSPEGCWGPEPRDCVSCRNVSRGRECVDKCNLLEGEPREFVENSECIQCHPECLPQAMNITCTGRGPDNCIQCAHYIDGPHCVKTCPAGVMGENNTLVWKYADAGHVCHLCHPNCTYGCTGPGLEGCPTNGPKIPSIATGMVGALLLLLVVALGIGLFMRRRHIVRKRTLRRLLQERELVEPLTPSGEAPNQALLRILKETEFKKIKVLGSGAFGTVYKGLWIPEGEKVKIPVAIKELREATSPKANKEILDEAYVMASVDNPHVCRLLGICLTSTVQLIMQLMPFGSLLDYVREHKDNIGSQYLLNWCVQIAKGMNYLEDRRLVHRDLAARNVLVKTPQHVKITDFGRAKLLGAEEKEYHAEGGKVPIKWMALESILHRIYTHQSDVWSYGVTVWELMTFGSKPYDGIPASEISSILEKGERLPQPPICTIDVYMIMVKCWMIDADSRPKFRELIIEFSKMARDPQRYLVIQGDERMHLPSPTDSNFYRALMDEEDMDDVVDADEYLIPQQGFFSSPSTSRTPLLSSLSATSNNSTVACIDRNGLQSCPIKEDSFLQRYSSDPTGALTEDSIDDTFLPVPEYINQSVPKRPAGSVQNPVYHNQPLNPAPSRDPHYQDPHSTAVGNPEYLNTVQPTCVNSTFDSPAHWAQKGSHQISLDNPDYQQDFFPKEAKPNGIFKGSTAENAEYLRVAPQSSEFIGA
Method: The basic method is the same as ALK activity test method 2. The test concentration of the compound starts at 2 μM, and is diluted 5 folds into 6 (7 for individual compounds) concentration points. […] Add 30 μL of stop solution containing EDTA to stop the kinase reaction. Use Caliper EZ Reader to read the conversion rate. Inhibition rate %=(Average positive control conversion rate %−Sample conversion rate %/(Average positive control conversion rate %−Average negative control conversion rate %). Among them: negative control wells represent the conversion rate readings without enzyme activity; positive control wells represent the conversion rate readings of wells without compound inhibition. Take the log value of the concentration as the X-axis, and the percentage inhibition rate on the Y-axis. Log (inhibitor) vs. response—Variable slope of analysis software GraphPad Prism 5 was used to fit the curve to obtain the IC50 value of each compound on the enzyme activity. Calculation formula: Y=Bottom+(Top−Bottom)/(1+10^((Log IC50−X)*HillSlope)).

[3] = Pharmacokinetic study in rats after intragastrical administration; type: in vivo; details: male, rat, plasma, po, SD rats, 3 mg/kg; for AUC(0-t): read-out: AUC0-24 h
Method: Example 55: Pharmacokinetic Study in Rats
Instruments: XEVO TQ-S LC/MS instrument produced by Waters. All measurement data is collected and processed by Masslynx V4.1 software, and the data is calculated and processed by Microsoft Excel. Using WinNonLin 8.0 software, the statistical moment method was used to calculate the pharmacokinetic parameters. Mainly include kinetic parameters Tmax, T1/2, Cmax, AUClast etc. […] Injection volume: 5 μL.
Animals: 3 male SD rats with a weight range of 200-220 g. After purchase, they will be kept in the laboratory of the Experimental Animal Center for 2 days and then used. They will be fasted for 12 hours predose and 4 hours after dosing. Drinking water is free during the test. After the rats were gavage, blood samples were taken according to the established time point.
Solvent: 0.5% Methylcellulose (aqueous solution containing 0.4% Tween 80 and 1% ethanol). Preparation of the solution for intragastrical administration: accurately weigh the compound, add it to the solvent, and ultrasonically at room temperature for 5 minutes to completely dissolve the drug, and prepare a 0.3 mg/ml medicinal solution.
Pharmaceutical samples: representative compounds of the structure shown in the patented formula (I) of the present invention, generally, multiple samples with similar structures (with a molecular weight difference of more than 2 units) are taken, accurately weighed, and administered together (cassette PK). In this way, multiple compounds can be screened at the same time and their oral absorption rates can be compared. A single administration was also used to study the pharmacokinetics of the drug sample in rats.
After intragastrical administration, blood was taken from the orbit at 0.25, 0.5, 1, 2, 4, 9, 12 and 24 hours, and placed in a plastic centrifuge tube pretreated with sodium heparin. After centrifugation, the supernatant plasma was used for LC-MS/MS analysis.
Accurately weigh the compounds to prepare different concentrations, perform quantitative analysis on mass spectrometry to establish a standard curve, and then test the concentration of the above-mentioned compound in the plasma to obtain the compound concentration at different time points. All measurement data are collected and processed by relevant software, and the statistical moment method is used to calculate the pharmacokinetic parameters (mainly including kinetic parameters Tmax, T1/2, Cmax, AUClast etc). The results are as follows:
Table 7: Pharmacokinetic Parameters of the Compounds after Intragastrical Administration in SD Rats

[4] = 700 cells/well, 72 h, read-out: Ba/F3_EGFR (del19-T790M-C797S) cell proliferation inhibition (IC50 value) Method 1

Sequence of MAP4K1 (HPK1) (Q92918 whole entry): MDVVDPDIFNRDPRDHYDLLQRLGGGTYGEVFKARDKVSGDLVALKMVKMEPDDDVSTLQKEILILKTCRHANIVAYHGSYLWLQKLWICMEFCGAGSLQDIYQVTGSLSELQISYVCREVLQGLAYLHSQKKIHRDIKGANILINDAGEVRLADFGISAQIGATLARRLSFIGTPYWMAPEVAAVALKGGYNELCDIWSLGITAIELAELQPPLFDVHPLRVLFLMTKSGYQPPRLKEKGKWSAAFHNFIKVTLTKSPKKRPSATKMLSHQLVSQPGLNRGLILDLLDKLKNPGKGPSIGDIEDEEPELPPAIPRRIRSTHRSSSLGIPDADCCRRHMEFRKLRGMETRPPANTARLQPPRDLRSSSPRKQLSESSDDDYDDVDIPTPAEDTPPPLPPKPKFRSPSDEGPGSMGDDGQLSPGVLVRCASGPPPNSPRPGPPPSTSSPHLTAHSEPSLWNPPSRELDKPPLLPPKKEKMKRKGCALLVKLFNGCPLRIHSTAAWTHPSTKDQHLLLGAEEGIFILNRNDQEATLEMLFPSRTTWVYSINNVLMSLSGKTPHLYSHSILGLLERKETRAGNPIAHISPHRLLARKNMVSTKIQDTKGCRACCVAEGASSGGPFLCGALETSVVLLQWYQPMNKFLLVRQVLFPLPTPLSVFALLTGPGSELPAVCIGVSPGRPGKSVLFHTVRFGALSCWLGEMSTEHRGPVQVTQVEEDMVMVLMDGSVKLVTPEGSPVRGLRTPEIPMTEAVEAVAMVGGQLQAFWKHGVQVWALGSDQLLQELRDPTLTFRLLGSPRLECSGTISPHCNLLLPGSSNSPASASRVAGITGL

COc1cc(N2CCC(N3CCN(C)CC3)CC2)ccc1Nc1ncc(Cl)c(Nc2ccccc2P(C)(C)=O)n1 [Brigatinib, reference compound]
IC50 (MAP4K1 (HPK1)): 10 to 100 nM
GI50 ([1]; read-out: Ba/F3_EGFR (del19-T790M-C797S) cell proliferation inhibition (IC50 value) Method 1, 700 cells/well, 72 h): 100 to 200 nM
GI50 [2]: > 200 nM

CN(C)CCN1CCN2c3ccc(Nc4ncc(Cl)c(Nc5ccccc5P(C)(C)=O)n4)cc3OC[C@H]2C1 [Compound 14R]
IC50 (MAP4K1 (HPK1)): 1 to 10 nM
IC50 (ALK): 50 to 250 nM
GI50 [1, 4]: 100 to 200 nM
IC50 (EGFR (C797S)): 50 to 250 nM

CP(C)(=O)c1ccccc1Nc1nc(Nc2ccc3c(c2)OC[C@H]2CN(c4ccccc4)CCN32)ncc1Cl [Compound 16R]
IC50 (MAP4K1 (HPK1)): 1 to 10 nM
IC50 (EGFR (T790M/L858R/C797S)): 15 to 100 nM
IC50 (ALK): 50 to 250 nM
IC50 (EGFR (C797S)): 50 to 250 nM

CN(C)C/C=C/C(=O)N1CCN2c3ccc(Nc4ncc(Cl)c(Nc5ccccc5P(C)(C)=O)n4)cc3OC[C@H]2C1 [Compound 18R]
IC50 (MAP4K1 (HPK1)): ≤ 1 nM
IC50 (EGFR (T790M/L858R/C797S)): < 3 nM
GI50 [1, 4]: 100 to 200 nM

CP(C)(=O)c1ccccc1Nc1nc(Nc2ccc3c(c2)OC[C@H]2CN(C4CCNCC4)CCN32)ncc1Cl [Compound 21R]
IC50 (MAP4K1 (HPK1)): ≤ 1 nM
IC50 (EGFR (T790M/L858R/C797S)): < 3 nM
GI50 [1, 4]: > 200 nM

C=CC(=O)N1CCC(N2CCN3c4ccc(Nc5ncc(Cl)c(Nc6ccccc6P(C)(C)=O)n5)cc4OC[C@H]3C2)CC1 [Compound 22R]
IC50 (MAP4K1 (HPK1)): ≤ 1 nM
IC50 (EGFR (T790M/L858R/C797S)): 3 to 15 nM
GI50 [1, 4]: < 20 nM

Cc1cc(Nc2ncc(Cl)c(Nc3ccccc3P(C)(C)=O)n2)cc2c1N1CCNC[C@H]1CO2 [Compound 23S]
IC50 (MAP4K1 (HPK1)): ≤ 1 nM
IC50 (EGFR (T790M/L858R/C797S)): < 3 nM
GI50 [1, 4]: < 20 nM

Cc1cc(Nc2ncc(Cl)c(Nc3ccccc3P(C)(C)=O)n2)cc2c1OC[C@H]1CNCCN21 [Compound 24R]
IC50 (MAP4K1 (HPK1)): 1 to 10 nM
IC50 (EGFR (T790M/L858R/C797S)): 3 to 15 nM
GI50 [1, 4]: 20 to 100 nM

C=CC(=O)Nc1cc(Nc2ncc(Cl)c(Nc3ccccc3P(C)(C)=O)n2)cc2c1N1CCN(C)C[C@@H]1CO2 [Compound 29R]
IC50 (MAP4K1 (HPK1)): ≤ 1 nM
IC50 (EGFR (T790M/L858R/C797S)): 3 to 15 nM
GI50 [1, 4]: 20 to 100 nM

Cc1cc(Nc2ncc(Cl)c(Nc3ccccc3P(C)(C)=O)n2)cc2c1N1CCN(C3CCOCC3)C[C@H]1CO2 [Compound 31S]
Cmax [3]: 160 ng/mL
Tmax [3]: 1 h
half-life [3]: 6.27 h
AUC(0-t) [3]: 1350 ng·h/mL
IC50 (MAP4K1 (HPK1)): ≤ 1 nM
IC50 (EGFR (T790M/L858R/C797S)): < 3 nM
GI50 [2]: 20 to 100 nM

CC(=O)N1CCC(N2CCN3c4c(C)cc(Nc5ncc(Cl)c(Nc6ccccc6P(C)(C)=O)n5)cc4OC[C@@H]3C2)CC1 [Compound 32S]
Cmax [3]: 352 ng/mL
Tmax [3]: 3.33 h
half-life [3]: 2.22 h
AUC(0-t) [3]: 3260 ng·h/mL
IC50 (MAP4K1 (HPK1)): ≤ 1 nM
IC50 (EGFR (T790M/L858R/C797S)): < 3 nM
GI50 [1, 4]: 20 to 100 nM

Cc1cc(Nc2ncc(Cl)c(Nc3ccccc3P(C)(C)=O)n2)cc2c1N1CCN(C3CN(C)C3)C[C@H]1CO2 [Compound 34S]
IC50 (MAP4K1 (HPK1)): ≤ 1 nM
IC50 (EGFR (T790M/L858R/C797S)): < 3 nM
GI50 [2]: < 20 nM
